Data: patent US20050203029A1, “Agents for treating <I>flaviviridae</I>infections” (priority 2002, published 2005)
Peptide text beside a SMILES is read from it. * marks the point of attachment. Cbz = O=C(OCc1ccccc1)*

Key:
[1] = tested on: BVDV; assay: Electron microscopy (TEM) of BVDV-infected MDBK cells and virus supernatants; assay type: cell-based, bovine viral diarrhea virus
[2] = tested on: West Nile virus; assay: West Nile virus infection of BHK-21 cells (end point titration, RNase protection, immunofluorescence); assay type: cell-based, West Nile flavivirus; conditions: 10 nM PI after infection, 12 hours
[3] = tested on: BVDV (CP7, NADL); assay: Western blot of pelleted BVDV virions with anti-BVDV core antibodies; assay type: cell-based, bovine viral diarrhea virus; conditions: for production of BVDV virions (pelleted virions): 24 or 48 hours of treatment; for core signal, mature and immature form of the BVDV core protein / quantity of BVDV virus as measured by the core signal: 48 hours of treatment; for quantity of BVDV virus as measured by the core signal: 150 μM
[4] = tested on: BVDV CP7; assay: BVDV CP7 infection of MDBK cells (end point titration, RNase protection, immunofluorescence); assay type: cell-based, bovine viral diarrhea virus; conditions: 10 nM PI after infection, 30 hours

SMILES	number of virus particles detected in cellular vesicles vs mock ([1]; 10 μm MG132, 30 hours)	ratio of completely assembled to incompletely assembled virions ([1]; 10 μm MG132, 30 hours)	morphology of secreted viruses vs wild-type viruses ([1]; supernatants of PI-treated vs mock-treated cells)	reduction in the number of progeny viruses released [2]	production of BVDV virions (pelleted virions) [3]	core signal, mature and immature form of the BVDV core protein [3]	quantity of BVDV virus as measured by the core signal [3] [%]	reduction in the number of progeny viruses released [4]	reduction in the rate of RNA replication (factor) [2]	reduction in the rate of RNA replication (factor) [4]
CC(C)C[C@@H](C=O)NC(=O)[C@H](CC(C)C)NC(=O)[C@H](CC(C)C)NC(=O)OCc1ccccc1 [MG132, N-carbobenzoxy-L-leucinyl-L-leucinyl-L-leucinal] (Cbz-Leu-Leu-Leu-aldehyde)	significantly smaller number of virus particles	shifted significantly in favor of incompletely assembled virus particles	changed markedly	several log steps	block the production of BVDV virions	dose-dependent decrease	10	several log steps	–	–
CC(=O)N[C@@H](CSC(=O)[C@]1([C@@H](O)C(C)C)NC(=O)[C@H](C)[C@@H]1O)C(=O)O [lactacystin]	–	–	–	slight	block the production of BVDV virions	dose-dependent decrease	10	slight	slight	slight
